Measured values published in patent US4645778A, “2-(N-pyrrolidino)-3-isobutoxy-n-substituted-phenyl-n-benzyl-propylamines, their preparation and pharmaceutical use” (Riom Laboratoires C.E.R.M. "RL-Cerm"S.A., priority 1983, dated 1987).
Like-named read-outs stand apart in the source and are kept apart here.

Assays:
[1] = system: papillary muscle; test: Cardiac tropism: calcium antagonism on rabbit papillary muscle (inotropic effect of calcium chloride); conditions: for cardiac anti-calcium activity / cardiac tropism (in words): cardiac test, summary of Table I; for PAPILLARY MUSCLE pA2 / PAPILLARY MUSCLE pD'2: rabbit papillary muscle
Description: (§1) In vitro, the calcium antagonism activity was investigated in accordance with the methods summarised below.
Investiqation of a cardiac tropism
A rabbit's papillary muscle was placed in a KREBS-HENSELEIT solution kept at 37° C. and was stimulated electrically at a frequency of 1.5 Hz (5 ms of pulse at 15 V).
The positive inotropic effect of calcium chloride was investigated by the method of cumulative dose-response curves.
The substances to be studied were added to the solution in which the muscle was kept, 15 minutes prior to determining the agonist curves.
(§2) The conventional parameters of molecular pharmacology are subsequently determined (pA2 for a competitive antagonism and pD'2 for a non-competitive anatagonism), using the technique of VAN ROSSUM [ARCH. INT. PHARMACODYN. THER. 143, 299-330 (1963)].

[2] = system: isolated aorta; test: Vascular tropism: anti-calcium effect on rabbit isolated aorta (contraction by calcium chloride); conditions: for ISOLATED AORTA pA2 / ISOLATED AORTA pD'2: rabbit isolated aorta, K+ depolarised, 37° C., 15 min; for ISOLATED AORTA pA2: competitive antagonism vs calcium chloride; for ISOLATED AORTA pD'2: non-competitive antagonism vs calcium chloride; for vascular anti-calcium activity / vascular tropism (in words): vascular test, summary of Table I
Description: as §1
Investigation of a vascular tropism
A rabbit's isolated aorta, cut into spirals, was placed in a KREBS solution kept at 37° C., free from Ca^++ and enriched with K^+ ([…] of KCL/liter) for depolarisation.
The contracting effect of cumulative concentrations of calcium chloride was investigated and the anti-calcium effect of the compounds studied was evaluated 15 minutes after their addition to the solution in which the aorta was kept.
as §2

[3] = system: anaesthetised dog; test: Anti-angina activity: haemodynamic effects in the anaesthetised dog; assay type: in vivo; conditions: 5 mg.kg^-1 intravenously; for anti-anginal activity (in words): summary of Table II; for change in vivo at 5 mg/kg: Canis lupus familiaris, iv
Description: In vivo, the anti-angina activity was investigated by measuring the haemodynamic effects in the anaesthetised dog, in accordance with the method summarised below.
The following parameters were recorded on the dog anaesthetised with chloralose (100 mg.kg^-1 administered intravenously):
pulse rate, by means of subcutaneous ECG electrodes connected to a BECKMAN cardiotachymeter (branch D II),
coronary arterial flow recorded by means of a STATHAM electromagnetic flowmeter and
antitachycardiac action (inhibition of the positive chronotropic effects of isoprenaline).
These parameters were recorded continuously on a BECKMAN dynograph and at the same time the duration of the action was measured.
The compounds of the invention are administered intravenously at a dose of 5 mg.kg^-1.

[4] = 37° C., 15 min preincubation, competitive antagonism vs calcium chloride
[5] = read-out: CORONARY FLOW Variation
[6] = inhibition of positive chronotropic effects of isoprenaline, read-out: ANTI-TACHYCARDIAC ACTION Variation
[7] = inhibition of positive chronotropic effects of isoprenaline

## Cc1ccc(N(Cc2ccccc2)CC(COCC(C)C)N2CCCC2)cc1 (stereo not shown) [Compound 1]
[1]
  cardiac anti-calcium activity / cardiac tropism (in words): more marked cardiac tropism
[1]; [4]
  PAPILLARY MUSCLE pA2: 4.30 ± 0.24
[1]; 37° C., 15 min preincubation, non-competitive antagonism vs calcium chloride
  PAPILLARY MUSCLE pD'2: 3.81 ± 0.20
[2]
  ISOLATED AORTA pA2: 4.83 ± 0.28
  ISOLATED AORTA pD'2: 5.08 ± 0.27

## CC(C)COCC(CN(Cc1ccccc1)c1ccc(Cl)c(Cl)c1)N1CCCC1 (stereo not shown) [Compound 2]
[3]
  CORONARY FLOW Duration: 10 min
  PULSE RATE Duration: > 45 min
  anti-anginal activity (in words): most valuable anti-anginal activity
[3]; [5]
  change in vivo at 5 mg/kg: 39%
[3]; read-out: PULSE RATE Variation
  change in vivo at 5 mg/kg: -11%
[3]; [6]
  change in vivo at 5 mg/kg: -51%
[3]; [7]
  ANTI-TACHYCARDIAC ACTION Duration: 15 min

## COc1ccc(N(Cc2ccccc2)CC(COCC(C)C)N2CCCC2)cc1 (stereo not shown) [Compound 3]
[1]; at 10^-4 M, 15 min
  PAPILLARY MUSCLE pD'2: 4.5
[1]
  cardiac anti-calcium activity / cardiac tropism (in words): more marked cardiac tropism
[1]; [4]
  PAPILLARY MUSCLE pA2: 4.87 ± 0.40
[2]
  ISOLATED AORTA pA2: 4.70 ± 0.38
  ISOLATED AORTA pD'2: 4.00 ± 0.24
[3]
  CORONARY FLOW Duration: 20 min
  PULSE RATE Duration: > 45 min
  anti-anginal activity (in words): most valuable anti-anginal activity
[3]; [5]
  change in vivo at 5 mg/kg: 196%
[3]; read-out: PULSE RATE Variation
  change in vivo at 5 mg/kg: -24%
[3]; [6]
  change in vivo at 5 mg/kg: -63%
[3]; [7]
  ANTI-TACHYCARDIAC ACTION Duration: 30 min

## CC(C)COCC(CN(Cc1ccccc1)c1ccc(Cl)cc1)N1CCCC1 (stereo not shown) [Compound 4]
[3]
  CORONARY FLOW Duration: 3 min
  PULSE RATE Duration: > 45 min
[3]; [5]
  change in vivo at 5 mg/kg: 32%
[3]; read-out: PULSE RATE Variation
  change in vivo at 5 mg/kg: -27%
[3]; [6]
  change in vivo at 5 mg/kg: -60%
[3]; [7]
  ANTI-TACHYCARDIAC ACTION Duration: > 45 min

## CC(C)COCC(CN(Cc1ccccc1)c1cccc(Cl)c1)N1CCCC1 (stereo not shown) [Compound 5, 2-(N-pyrrolidino)-3-isobutoxy-N-(3-chloro)-phenyl-N-benzyl-propylamine]
[1]; at 10^-4 M
  PAPILLARY MUSCLE pA2: Inactive
[2]
  ISOLATED AORTA pA2: 4.83 ± 0.27
  ISOLATED AORTA pD'2: 4.71 ± 0.20
[3]
  CORONARY FLOW Duration: 15 min
  PULSE RATE Duration: > 45 min
  anti-anginal activity (in words): most valuable anti-anginal activity
[3]; [5]
  change in vivo at 5 mg/kg: 98%
[3]; read-out: PULSE RATE Variation
  change in vivo at 5 mg/kg: -20%
[3]; [6]
  change in vivo at 5 mg/kg: -45%
[3]; [7]
  ANTI-TACHYCARDIAC ACTION Duration: 15 min

## CC(C)COCC(CN(Cc1ccccc1)c1cccc(C(F)(F)F)c1)N1CCCC1 (stereo not shown) [Compound 6]
[1]; at 10^-4 M, 15 min
  PAPILLARY MUSCLE pA2: 3.41
[2]
  ISOLATED AORTA pA2: 5.19 ± 0.37
  ISOLATED AORTA pD'2: 3.73 ± 0.50
  vascular anti-calcium activity / vascular tropism (in words): predominantly vascular tropism
[3]
  CORONARY FLOW Duration: 1 min
  PULSE RATE Duration: > 45 min
[3]; [5]
  change in vivo at 5 mg/kg: 20%
[3]; read-out: PULSE RATE Variation
  change in vivo at 5 mg/kg: -32%
[3]; [6]
  change in vivo at 5 mg/kg: -64%
[3]; [7]
  ANTI-TACHYCARDIAC ACTION Duration: > 45 min

## CC(C)COCC(CN(Cc1ccccc1)c1cc(Cl)cc(Cl)c1)N1CCCC1 (stereo not shown) [Compound 7]
[1]; at 10^-4 M
  PAPILLARY MUSCLE pA2: Inactive
[2]
  ISOLATED AORTA pA2: 4.70 ±0.60
  ISOLATED AORTA pD'2: 3.85 ± 0.43
[3]
  CORONARY FLOW Duration: 5 min
  PULSE RATE Duration: 45 min
[3]; [5]
  change in vivo at 5 mg/kg: 31%
[3]; read-out: PULSE RATE Variation
  change in vivo at 5 mg/kg: -23%
[3]; [6]
  change in vivo at 5 mg/kg: -54%
[3]; [7]
  ANTI-TACHYCARDIAC ACTION Duration: 45 min

## Cc1cccc(C)c1N(Cc1ccccc1)CC(COCC(C)C)N1CCCC1 (stereo not shown) [Compound 8]
[1]; at 10^-4 M, 15 min
  PAPILLARY MUSCLE pD'2: 3.69
[1]; at 10^-5 M, 15 min
  PAPILLARY MUSCLE pA2: 4.67
[1]
  cardiac anti-calcium activity / cardiac tropism (in words): noteworthy
[2]
  ISOLATED AORTA pA2: 5.21 ± 0.65
  ISOLATED AORTA pD'2: 4.87 ± 0.48
  vascular anti-calcium activity / vascular tropism (in words): noteworthy
[3]
  CORONARY FLOW Duration: 15 min
  PULSE RATE Duration: 35 min
  anti-anginal activity (in words): most valuable anti-anginal activity
[3]; [5]
  change in vivo at 5 mg/kg: 85%
[3]; read-out: PULSE RATE Variation
  change in vivo at 5 mg/kg: -36%
[3]; [6]
  change in vivo at 5 mg/kg: -28%
[3]; [7]
  ANTI-TACHYCARDIAC ACTION Duration: 15 min

## CC(C)COCC(CN(Cc1ccccc1)c1ccc2c(c1)OCO2)N1CCCC1 (stereo not shown) [Compound 11, 2-(N-pyrrolidino)-3-isobutoxy-N-(3,4-methylenedioxy)-phenyl-N-benzyl-propylamine]
[1]; at 10^-4 M
  PAPILLARY MUSCLE pD'2: total
[1]
  cardiac anti-calcium activity / cardiac tropism (in words): about the highest activity
[1]; [4]
  PAPILLARY MUSCLE pA2: 5.44 ± 0.26
[2]
  ISOLATED AORTA pA2: 4.94 ± 0.43
  ISOLATED AORTA pD'2: 4.80 ± 0.05
  vascular anti-calcium activity / vascular tropism (in words): about the highest activity
[3]
  CORONARY FLOW Duration: 20 min
  PULSE RATE Duration: > 45 min
  anti-anginal activity (in words): most valuable anti-anginal activity
[3]; [5]
  change in vivo at 5 mg/kg: 116%
[3]; read-out: PULSE RATE Variation
  change in vivo at 5 mg/kg: -50%
[3]; [6]
  change in vivo at 5 mg/kg: -47%
[3]; [7]
  ANTI-TACHYCARDIAC ACTION Duration: 45 min
